Square brackets hold non-standard residues; d marks the D form. Side chains are listed from the residue outwards. * marks the point of attachment. Gal‑1 = GalNAc linker: 5-(GalNAc-oxy)pentanoic acid (3-acetamido-4,5-diacetoxy-6-(acetoxymethyl)tetrahydropyran-2-yl-oxy)pentanoic acid; Gal‑3 = GalNAc linker: 4-(GalNAc-oxy)butanoic acid (3-acetamido-4,5-diacetoxy-6-(acetoxymethyl)tetrahydropyran-2-yl-oxy)butanoic acid; 5FAM = O=C1OC2(c3ccc(O)cc3Oc3cc(O)ccc32)c2ccc(C(=O)*)cc21; Linker2 = 6-aminohexyl amide linker; GalNAc = N-acetylgalactosamine
Key:
HepG2 cells = test: Cellular uptake / binding of FAM-labeled ligands to HepG2 cells (flow cytometry, proportion of FAM positive cells); type: cell-based, human; conditions: for Efficiency (%) of cellular uptake (percentage of ligand-bound HepG2 cells): 24 h
Method: The human hepatocellular carcinoma (HepG2) cell line was purchased from Shanghai Zhong Qiao Xin Zhou Biotechnology Co., Ltd. and maintained in minimum essential medium (Gibco, ThermoFisher Scientific, USA) with 10% fetal bovine serum (Gibco, ThermoFisher Scientific, USA), 200 units/mL penicillin plus 200 units/mL streptomycin at 37° C. with 5% CO2.
Cells were seeded in 24-well plates with a density of 1.5×10^5 cells per well and incubated under 37° C., 5% CO2. After 18 h of incubation, media were replaced to MEM with 2% FBS and FAM-labeled ligands were added with final concentrations of 1.6, 8, 40 or 200 nM. After 24 h of incubation, cells were washed twice with 1×PBS and analyzed by LSRFortessa (BD Biosciences, NJ, USA). The binding efficiency was evaluated by the proportion of FAM positive cells.
HepG2 cell was treated by 14 cyclic peptide-tri-GalNAc ligand variants with serial diluted concentration of 1.6, 8, 40 or 200 nM. Commercialized tri-GalNAc used in Givosirna was used as positive control and cyclic peptide w/o tri-GalNAc was negative control. […] Equilibrium dissociation constant (kd) for 5-FAM-CPMB-0013 (ID013), 5-FAM-CPMB-0023 (ID023), 5-FAM-CPMB-0035 (ID035) and commercialized tri-GalNAC were 7.0, 8.6, 5.7 and 18 nM, respectively.

[1] = target: asialoglycoprotein receptor (ASGPR) on HepG2 cells (human) (UniProt P07306); test: flow cytometry, % FAM-positive HepG2 cells after 24 h with 40 nM ligand
[2] = target: asialoglycoprotein receptor (ASGPR) on HepG2 cells (human) (UniProt P07306); test: flow cytometry, % FAM-positive HepG2 cells after 24 h with 1.6 nM ligand
[3] = target: asialoglycoprotein receptor (ASGPR) on HepG2 cells (human) (UniProt P07306); test: flow cytometry, % FAM-positive HepG2 cells after 24 h with 8 nM ligand
[4] = target: asialoglycoprotein receptor (ASGPR) on HepG2 cells (human) (UniProt P07306); test: flow cytometry, % FAM-positive HepG2 cells after 24 h with 200 nM ligand
[5] = target: asialoglycoprotein receptor (ASGPR) on HepG2 cells (human) (UniProt P07306); test: flow cytometry titration on HepG2 cells (% FAM-positive cells, 1.6-200 nM, 24 h)

Chain of asialoglycoprotein receptor (ASGPR) on HepG2 cells (human) (P07306 whole entry, chain 1 of 2): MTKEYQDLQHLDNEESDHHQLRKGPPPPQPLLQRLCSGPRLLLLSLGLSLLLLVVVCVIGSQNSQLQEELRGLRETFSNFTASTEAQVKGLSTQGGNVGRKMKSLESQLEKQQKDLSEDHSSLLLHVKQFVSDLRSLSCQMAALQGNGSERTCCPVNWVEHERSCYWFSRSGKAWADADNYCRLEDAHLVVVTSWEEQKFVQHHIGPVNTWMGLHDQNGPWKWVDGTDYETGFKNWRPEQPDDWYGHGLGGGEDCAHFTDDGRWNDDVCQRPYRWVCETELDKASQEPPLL
Chain of asialoglycoprotein receptor (ASGPR) on HepG2 cells (human) (P07307 whole entry, chain 2 of 2, further chain): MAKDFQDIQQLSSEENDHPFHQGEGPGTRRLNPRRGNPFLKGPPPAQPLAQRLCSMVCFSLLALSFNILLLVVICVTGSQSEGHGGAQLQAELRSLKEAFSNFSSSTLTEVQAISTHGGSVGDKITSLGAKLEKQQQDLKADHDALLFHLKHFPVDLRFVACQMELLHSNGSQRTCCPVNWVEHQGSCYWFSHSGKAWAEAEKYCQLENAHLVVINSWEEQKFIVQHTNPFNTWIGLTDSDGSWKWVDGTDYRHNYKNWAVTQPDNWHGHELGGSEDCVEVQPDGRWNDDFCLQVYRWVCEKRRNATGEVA

| Efficiency (%) (proportion of FAM positive cells) [1] | Efficiency (%) (proportion of FAM positive cells) [2] | Efficiency (%) (proportion of FAM positive cells) [3] | Efficiency (%) (proportion of FAM positive cells) [4] | Kd [5] [nM] | Molecule | Efficiency (%) of cellular uptake (percentage of ligand-bound HepG2 cells) (HepG2 cells; 1.6 nM ligand, HepG2) [%] | Efficiency (%) of cellular uptake (percentage of ligand-bound HepG2 cells) (HepG2 cells; 8 nM ligand, HepG2) [%] | Efficiency (%) of cellular uptake (percentage of ligand-bound HepG2 cells) (HepG2 cells; 40 nM ligand, HepG2) [%] | Efficiency (%) of cellular uptake (percentage of ligand-bound HepG2 cells) (HepG2 cells; 200 nM ligand, HepG2) [%] | Kd (HepG2 cells; HepG2 cells, read-out: Equilibrium dissociation constant (kd)) [nM] | binding ability as compared to others and commercialized tri-GalNAc (HepG2 cells; among 14 variants, HepG2) |
| --- | --- | --- | --- | --- | --- | --- | --- | --- | --- | --- | --- |
| – | – | – | – | – | 5-FAM-CPMB-0011: CPS-001 cyclic peptide scaffold, Gal-1 GalNAc linker, 5-FAM label; FIG. 14A (KEKGKG; cyclised or stapled) | 3.0 | 20.1 | 67.7 | 94.2 | – | – |
| – | – | – | – | – | 5-FAM-CPMB-0012: CPS-001 cyclic peptide scaffold, Gal-2 GalNAc linker, 5-FAM label; FIG. 14B (KEKGKG; not fully specified; cyclised or stapled) | 1.2 | 19.6 | 74.2 | 95.9 | – | – |
| – | – | – | – | – | 5-FAM-CPMB-0014: CPS-001 cyclic peptide scaffold, Gal-4 GalNAc linker, 5-FAM label; FIG. 14D (KEKGKG; cyclised or stapled) | 2.3 | 24.4 | 71.0 | 96.5 | – | – |
| – | – | – | – | – | 5-FAM-CPMB-0015: CPS-001 cyclic peptide scaffold, Gal-5 GalNAc linker, 5-FAM label; FIG. 14E (KEKGKG; cyclised or stapled) | 16.3 | 36.3 | 89.6 | 99 | – | – |
| – | – | – | – | – | 5-FAM-CPMB-0021: CPS-002 cyclic peptide scaffold, Gal-1 GalNAc linker, 5-FAM label; FIG. 14F (KEKGKG; D-residues; cyclised or stapled) | 6.8 | 46.1 | 88.7 | 98.8 | – | – |
| – | – | – | – | – | 5-FAM-CPMB-0025: CPS-002 cyclic peptide scaffold, Gal-5 GalNAc linker, 5-FAM label; FIG. 14H (KEKGKG; D-residues; cyclised or stapled) | 1.6 | 30 | 83.1 | 98.2 | – | – |
| – | – | – | – | – | 5-FAM-CPMB-0031-Ac: negative control, cyclic peptide w/o tri-GalNAc; CPS-003, Gal-1; FIG. 14R (KEKGKG; D-residues; cyclised or stapled) [reference compound] | 0.1 | 0.1 | 0.2 | 0.4 | – | – |
| – | – | – | – | – | 5-FAM-CPMB-0031: CPS-003 cyclic peptide scaffold, Gal-1 GalNAc linker, 5-FAM label; FIG. 14I (KEKGKG; D-residues; cyclised or stapled) | 6.0 | 44.2 | 87.8 | 98.6 | – | – |
| – | – | – | – | – | 5-FAM-CPMB-0033: CPS-003 cyclic peptide scaffold, Gal-3 GalNAc linker, 5-FAM label; FIG. 14J (KEKGKG; D-residues; cyclised or stapled) | 5.3 | 34.5 | 82.9 | 98.2 | – | – |
| – | – | – | – | – | 5-FAM-CPMB-0034: CPS-003 cyclic peptide scaffold, Gal-4 GalNAc linker, 5-FAM label; FIG. 14K (KEKGKG; D-residues; cyclised or stapled) | 2.0 | 25.6 | 73.6 | 95.6 | – | – |
| – | – | – | – | – | 5-FAM-CPMB-0035: CPS-003 cyclic peptide scaffold, Gal-5 GalNAc linker, 5-FAM label; FIG. 14L (KEKGKG; D-residues; cyclised or stapled) | 11.1 | 63.2 | 95.2 | 99.5 | 5.7 | relatively higher binding ability |
| – | – | – | – | – | 5-FAM-CPMB-0311: CPS-031 cyclic peptide scaffold, Gal-1 GalNAc linker, 5-FAM label; FIG. 14M (KEKAKA; cyclised or stapled) | 3.1 | 20.8 | 68.8 | 93.3 | – | – |
| – | – | – | – | – | 5-FAM-CPMB-0313: CPS-031 cyclic peptide scaffold, Gal-3 GalNAc linker, 5-FAM label; FIG. 14N (KEKAKA; cyclised or stapled) | 3.0 | 24.6 | 73.2 | 95.1 | – | – |
| 73.6 | 2 | 25.6 | 95.6 | – | KEKGKG (head-to-tail cyclic; D-Glu; each Lys side chain carries GalNAc via linker Gal-4; D-Glu side chain carries Linker2 with 5-FAM) [5-FAM-CPMB-0034] | – | – | – | – | – | – |
| 95.2 | 11.1 | 63.2 | 99.5 | 5.7 | KEKGKG (head-to-tail cyclic; D-Glu; each Lys side chain carries GalNAc via linker Gal-5; D-Glu side chain carries Linker2 with 5-FAM) [5-FAM-CPMB-0035] | – | – | – | – | – | – |
| 82.9 | 5.3 | 34.5 | 98.2 | – | cyclo(K([Gal‑3-GalNAc])[dE]([Linker2-5FAM])K([Gal‑3-GalNAc])GK([Gal‑3-GalNAc])G) [5-FAM-CPMB-0033] | – | – | – | – | – | – |
| 91.2 | 6.2 | 47.2 | 99.2 | 8.6 | cyclo([dK]([Gal‑3-GalNAc])[dE]([Linker2-5FAM])[dK]([Gal‑3-GalNAc])G[dK]([Gal‑3-GalNAc])G) [5-FAM-CPMB-0023] | – | – | – | – | – | – |
| 88.7 | 6.8 | 46.1 | 98.8 | – | cyclo([dK]([Gal‑1-GalNAc])[dE]([Linker2-5FAM])[dK]([Gal‑1-GalNAc])G[dK]([Gal‑1-GalNAc])G) [5-FAM-CPMB-0021] | – | – | – | – | – | – |
| 87.8 | 6 | 44.2 | 98.6 | – | cyclo(K([Gal‑1-GalNAc])[dE]([Linker2-5FAM])K([Gal‑1-GalNAc])GK([Gal‑1-GalNAc])G) [5-FAM-CPMB-0031] | – | – | – | – | – | – |
| 83.1 | 1.6 | 30 | 98.2 | – | KEKGKG (head-to-tail cyclic; D-Lys at the three Lys positions and D-Glu; each D-Lys side chain carries GalNAc via linker Gal-5; D-Glu side chain carries Linker2 with 5-FAM) [5-FAM-CPMB-0025] | – | – | – | – | – | – |

Reference: US20240218023A1, “CYCLIC PEPTIDE-N-ACETYLGALACTOSAMINE (GALNAC) CONJUGATES FOR DRUG DELIVERY TO LIVER CELLS” (MICROBIO (SHANGHAI) CO., LTD., priority 2021, published 2024)
